Laboratory results reported in US7112579B2, “26,27-Homologated-20-EPI-2-alkyl-19-nor-vitamin D compounds” (Wisconsin Alumni Research Foundation, priority 1997, dated 2006).
Where “and” joins values, the source holds several entries; their conditions need not be identical. Equal entries are not always repeated. Where two headings read alike, the source gives them in different places. Marks after values point to notes of the source that are not given here.

Assays:
[1] = test system: human promyelocyte HL-60 cells; assay: Differentiation of HL-60 promyelocytes into monocytes (NBT reduction); format: cell-based; conditions: for induction of differentiation of HL-60 cells to monocytes, in words: FIGS. 2, 4, 6, comparison in words; for HL-60 Differentiation Activity ratio: analog average ED50 / ED50 for 1α,25-(OH)2D3; for HL-60 Differentiation ED50: concentration inducing 50% maturation (NBT)
Text: In the next assay, the cellular activity of the synthesized compounds was established by studying their ability to induce differentiation of human promyelocyte HL-60 cells into monocytes.

[2] = test system: intestinal calcium transport; assay: Intestinal calcium transport (everted sac), chronic doses 7 days i.p., vitamin D-deficient rats; format: in vivo, rat; conditions: for intestinal calcium transport activity, in words: chronic 7 days, 130 and/or 260 pmol/day
Method: (§1) Male weanling rats were obtained from Sprague Dawley Co. (Indianapolis, Ind.) and fed a 0.47% calcium, 0.3% phosphorus vitamin D-deficient diet for 1 week and then given the same diet containing 0.02% calcium, 0.3% phosphorus for 2 weeks. During the last week they were given the indicated dose of compound by intraperitoneal injection in 0.1 ml 95% propylene glycol and 5% ethanol each day for 7 days. The control animals received only the 0.1 ml of 95% propylene glycol, 5% ethanol. Twenty-four hours after the last dose, the rats were sacrificed and intestinal calcium transport was determined by everted sac technique as previously described and serum calcium determined by atomic absorption spectrometry on a model 3110 Perkin Elmer instrument (Norwalk, Conn.). There were 5 rats per group and the values represent mean±SEM.
as §1, with “With respect to the data in Tables 3 and 4, male” for “Male”, “atormic” for “atomic”

[3] = test system: serum calcium (bone calcium mobilization); assay: Serum calcium (bone calcium mobilization), chronic doses 7 days i.p., vitamin D-deficient rats; format: in vivo, rat; conditions: for bone calcium mobilization (serum calcium) activity, in words: chronic 7 days, 130 and/or 260 pmol/day
Method: as §1
as §1, with “With respect to the data in Tables 3 and 4, male” for “Male”, “atormic” for “atomic”

[4] = test system: intestinal calcium transport; assay: Intestinal calcium transport after a single intrajugular dose, vitamin D-deficient rats; format: in vivo, rat; conditions: Table 2, single intrajugular dose 650 pmol, 24 h, mean±SEM
Method: (§2) Male Holtzman strain weanling rats were obtained from the Sprague Dawley Co. (Indianapolis, Ind.) and fed the 0.47% calcium, 0.3% phosphorus diet described by Suda et al. (J. Nutr. 100, 1049–1052, 1970) for 1 week and then fed the same diet containing 0.02% calcium and 0.3% phosphorus for 2 additional weeks. At this point, they received a single intrajugular injection of the indicated dose dissolved in 0.1 ml of 95% propylene glycol/5% ethanol. Twenty-four hours later they were sacrificed and intestinal calcium transport and serum calcium were determined as described in Table 1. The dose of the compounds was 650 pmol and there were 5 animals per group. The data are expressed as mean±SEM.

[5] = test system: serum calcium (bone calcium mobilization); assay: Serum calcium (bone calcium mobilization) after a single intrajugular dose, vitamin D-deficient rats; format: in vivo, rat; conditions: Table 2, single intrajugular dose 650 pmol, 24 h, mean±SEM
Method: as §2

[6] = biological target: T1, porcine intestinal vitamin D receptor (Sus scrofa, UniProt A3RGC1); assay: Competitive binding to the porcine intestinal vitamin D receptor ([3H]-1,25-(OH)2-D3 displacement); parameters: species or system pig; conditions: for VDR Binding ratio: analog average ED50 / ED50 for 1α,25-(OH)2D3; for EC50: concentration for 50% displacement of radiolabeled 1α,25-(OH)2D3, read-out: VDR Binding ED50
T1 construct: from tissue; host or cells: porcine intestine
T1 sequence (A3RGC1 1-427): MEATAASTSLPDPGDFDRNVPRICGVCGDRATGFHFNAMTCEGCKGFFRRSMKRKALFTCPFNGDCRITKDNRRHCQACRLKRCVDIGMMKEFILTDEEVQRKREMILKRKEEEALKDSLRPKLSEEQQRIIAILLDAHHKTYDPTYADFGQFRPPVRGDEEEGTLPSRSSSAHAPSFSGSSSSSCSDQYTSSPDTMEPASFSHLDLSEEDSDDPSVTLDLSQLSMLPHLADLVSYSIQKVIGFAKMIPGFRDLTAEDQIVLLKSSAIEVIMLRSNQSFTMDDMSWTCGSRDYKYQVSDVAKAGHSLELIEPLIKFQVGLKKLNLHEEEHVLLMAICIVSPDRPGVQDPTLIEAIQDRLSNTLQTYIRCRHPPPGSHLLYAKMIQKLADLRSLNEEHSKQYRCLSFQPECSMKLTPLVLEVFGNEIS

[7] = test system: intestinal calcium transport; assay: Support of intestinal calcium transport in vitamin D-deficient rats on a low-calcium diet (3 weeks), 7 daily i.p. doses; format: in vivo, rat
[8] = test system: bone calcium mobilization (serum Ca); assay: Bone calcium mobilization (serum Ca) in vitamin D-deficient rats on a low-calcium diet (3 weeks), 7 daily i.p. doses; format: in vivo, rat
[9] = Table 1, 130 pmol/day/7 days i.p., mean±SEM, 5 rats
[10] = Table 1, 260 pmol/day/7 days i.p., mean±SEM, 5 rats
[11] = listed as α and β isomers of 2-methyl-19-nor-1,25-(OH)2D3
[12] = listed as 2-Methyl (α and β mixture)-19-Nor-1,25-(OH)2D3
[13] = Table 9 panel 1, 32 pmol daily x 7 i.p.
[14] = Table 9 panel 1, 65 pmol daily x 7 i.p.
[15] = Table 4, 260 pmol/day/7 days i.p., mean±SEM
[16] = Table 5, 260 pmol/day/7 days i.p.
[17] = Table 7 panel 1, 260 pmol daily x 7 i.p.
[18] = Table 7 panel 2, 260 pmol daily x 7 i.p.
[19] = Table 9 panel 1, 260 pmol daily x 7 i.p.
[20] = Table 9 panel 2, 260 pmol daily x 7 i.p.
[21] = listed as 2-Methyl (α and β mixture)-19-Nor-20S-1,25-(OH)2D3
[22] = Table 7 panel 2, 65 pmol daily x 7 i.p.

## CC(CCCC(C)(C)O)C1CCC2C(=CC=C3CC(O)C(C)C(O)C3)CCCC21C (mixture of isomers) [2-Methyl (α and β) 19-Nor-1,25-(OH)2D3, mixture of 2α and 2β-methyl-19-nor-1α,25-dihydroxyvitamin D3]
[1]
  induction of differentiation of HL-60 cells to monocytes, in words: activity similar to 1,25-(OH)2D3
[2]; [9]
  Intestinal Calcium Transport (S/M): 5.0 ± 0.3 S/M
[2]; [10]
  Intestinal Calcium Transport (S/M): 5.3 ± 0.6 S/M
[2]; [11]
  intestinal calcium transport activity, in words: no intestinal calcium transport activity
[3]; [9]
  Serum Calcium: 6.1 ± 0.1 mg/100 ml
[3]; [10]
  Serum Calcium: 6.7 ± 0.4 mg/100 ml
[3]; [11]
  bone calcium mobilization (serum calcium) activity, in words: strong bone calcium mobilization at both dose levels
[4]; [12]
  Intestinal Calcium Transport (S/M): 3.6 ± 0.4 S/M
[5]; [12]
  Serum Calcium: 5.4 ± 0.1 mg/100 ml

## CC1[C@H](O)CC(=C/C=C2\CCC[C@@]3(C)C2CCC3[C@@H](C)CCCC2(O)CCCC2)C[C@H]1O (stereo partly drawn) [Compound 48, 20(S)-1α,25-Dihydroxy-26,27-dimethylene-2α-methyl-19-norvitamin D3]
[6]; Table 8
  VDR Binding ratio: 4.0
  EC50: 3.5 nM
[1]; Table 8
  HL-60 Differentiation Activity ratio: 0.01
  HL-60 Differentiation ED50: 0.044 nM
[7]; [13]
  Ca Transport S/M (mean ± SEM): 7.9 ± 1.0^d^1 S/M
[7]; [14]
  Ca Transport S/M (mean ± SEM): 9.0 ± 1.0^d^2 S/M
[8]; [13]
  Serum Ca (mean ± SEM): 6.9 ± 0.5^d^1
[8]; [14]
  Serum Ca (mean ± SEM): 9.0 ± 0.3^d^2

## C=C1/C(=C\C=C2/CCC[C@]3(C)[C@@H]([C@H](C)CCCC(C)(C)O)CC[C@@H]23)C[C@@H](O)C[C@@H]1O [1α,25-(OH)2D3, 1α,25-dihydroxyvitamin D3, reference compound]
[1]; Table 6
  HL-60 Differentiation ED50: 4 nM
[1]; Table 8
  HL-60 Differentiation ED50: 4 nM
[2]; [10]
  Intestinal Calcium Transport (S/M): 6.2 ± 0.4 S/M
[2]; Table 3, 260 pmol/day/7 days i.p., mean±SEM
  Intestinal Calcium Transport (S/M): 4.6 ± 0.2 S/M
[2]; [15]
  Intestinal Calcium Transport (S/M): 5.6 ± 1.3 S/M
[2]; [16]
  Intestinal Calcium Transport (S/M): 6.6 ± 0.5 S/M
[3]; Table 1, 260 pmol/day/7 days i.p., mean±SEM, 5 rats, listed as 1,25-(OH)2D3
  Serum Calcium: 7.2 mg/100 ml and 7.2 ± 0.5 mg/100 ml
[3]; Table 3, 260 pmol/day/7 days i.p., mean±SEM, listed as 1,25-(OH)2D3
  Serum Calcium: 6.6±0.4 mg/100 ml
[3]; [15]
  Serum Calcium: 6.1 ± 0.5 mg/100 ml
[3]; [16]
  Serum Calcium: 5.2 ± 0.1 mg/100 ml
[4]
  Intestinal Calcium Transport (S/M): 5.8 ± 0.3 S/M
[5]
  Serum Calcium: 5.7 ± 0.2 mg/100 ml
[7]; [17]
  Ca Transport S/M (mean ± SEM): 7.2 ± 0.6^c S/M
[7]; [18]
  Ca Transport S/M (mean ± SEM): 5.0 ± 0.4^c S/M
[7]; [19]
  Ca Transport S/M (mean ± SEM): 7.2 ± 0.6^c S/M
[7]; [20]
  Ca Transport S/M (mean ± SEM): 5.0 ± 0.4^c S/M
[8]; [17]
  Serum Ca (mean ± SEM): 5.6 ± 0.2^c
[8]; [18]
  Serum Ca (mean ± SEM): 6.3 ± 0.2^c
[8]; [19]
  Serum Ca (mean ± SEM): 5.6 ± 0.2^c
[8]; [20]
  Serum Ca (mean ± SEM): 6.3 ± 0.2^c

## CC(CCCC(C)(C)O)C1CCC2C(=CC=C3CC(O)C(C)C(O)C3)CCCC21C (mixture of isomers) [2-Methyl (α and β) 19-Nor-20S-1,25-(OH)2D3] [mixture of 2α and 2β-methyl-19-nor-20S-1α,25-dihydroxyvitamin D3]
[1]; listed as α and β derivatives of 2-methyl-19-nor-20S-1,25-(OH)2D3
  induction of differentiation of HL-60 cells to monocytes, in words: extremely potent
[2]; [9]
  Intestinal Calcium Transport (S/M): 5.0 ± 0.9 S/M
[2]; [10]
  Intestinal Calcium Transport (S/M): 6.9 ± 0.5 S/M
[2]
  intestinal calcium transport activity, in words: no significant change in intestinal calcium transport at 130 pmol dose level
[3]; [9]
  Serum Calcium: 9.6 ± 0.1 mg/100 ml
[3]; Table 1, 130 pmol/day/7 days i.p., mean±SEM, 5 rats, listed as 2-methyl-(α and β)-19-nor-20S-1,25-(OH)2D3
  Serum Calcium: 9.6 mg/100 ml
[3]; [10]
  Serum Calcium: 12.2 ± 0.3 mg/100 ml
[3]; Table 1, 260 pmol/day/7 days i.p., mean±SEM, 5 rats, listed as 2-methyl-(α and β)-19-nor-20S-1,25-(OH)2D3
  Serum Calcium: 12.2 mg/100 ml
[3]
  bone calcium mobilization (serum calcium) activity, in words: much higher than that of the native hormone
[4]; [21]
  Intestinal Calcium Transport (S/M): 6.7 ± 0.6 S/M
[5]; [21]
  Serum Calcium: 8.1 ± 0.3 mg/100 ml

## CCC(O)(CC)CCCC(C)C1CCC2C(=CC=C3CC(O)C(C)C(O)C3)CCCC21C [Compound 37, 20(S)-1α,25-Dihydroxy-2β-methyl-26,27-dihomo-19-norvitamin D3]
[6]; Table 6
  VDR Binding ratio: 5.5
  EC50: 4.8 nM
[1]; Table 6
  HL-60 Differentiation Activity ratio: 0.03
  HL-60 Differentiation ED50: 0.11 nM
[7]; [22]
  Ca Transport S/M (mean ± SEM): 4.7 ± 0.6^d^1 S/M
[7]; [18]
  Ca Transport S/M (mean ± SEM): 5.2 ± 0.6^d^2 S/M
[8]; [22]
  Serum Ca (mean ± SEM): 5.0 ± 0.0^d^1
[8]; [18]
  Serum Ca (mean ± SEM): 9.9 ± 0.3^d^2
